Assay results from patent US20210134398A1, “Combinatorial Chemistry Computational System and Enhanced Selection Method” (Southern Methodist University, priority 2019, published 2021).

Experiments:
[1] = target: T1, Normal Human MDR1 P-glycoprotein (Homo sapiens, UniProt P08183); experiment: ATPase activity assay (basal and verapamil-stimulated), P-gp in nanodiscs; type: biochemical; conditions: for Effect on stimulated ATPase / Stimulated ATPase: in the presence of verapamil; for Stimulated ATPase / Basal ATPase: ± standard deviation; for Effect on basal ATPase / Basal ATPase: no added transport substrate
T1 construct: made in house; host or cells: Pichia pastoris (P-gp); E. coli BL21 (DE3) (MSP1E3D1)
Source text: To assess whether the observed discrepancies of compounds stimulating basal P-gp ATPase activity but not being transport substrates of the human pump in the cell culture assessments were due to the fact that these biochemical assays used a cysteineless variant of the mouse MDR3 P-glycoprotein, the experiments were repeated using normal human MDR1 P-gp. In order to stabilize the human protein for the activity assays, the protein was assembled into membrane nanodiscs as described herein.
P-glycoprotein Purification. Cysteine-less MDR3 and the human normal MDR1 P-glycoprotein was recombinantly expressed in the yeast Pichia pastoris essentially as in^45, 46 and used for assaying ATP hydrolysis and ATP binding to the protein in the presence of the 29-variants. Purification of the protein was performed as described^49 with small modifications resulting in highly enriched P-gp in mixed micelles containing dodecyl maltoside (DDM) and lysophosphatidyl choline^26.
Nanodisc assembly. Human P-gp in mixed detergent micelles obtained during protein purification, was reconstituted into nanodiscsas described in references^73, 74 with small modifications. […] The detergent was removed with Bio-Beads™ SM-2 Adsorbent Media (BioRad). Ni-NTA Agarose (Qiagen) chromatography was used to purify P-gp reconstituted nanodiscs using 6 bed volumes of start buffer (20% (v/v) glycerol, 50 mM Tris-CL pH 7.5 at 4° C., 50 mM NaCl), and 5 bed volumes of elution buffer (20% (v/v) glycerol, 50 mM Tris-Cl pH 7.5 at 4° C., 50 mM NaCl, 300 mM imidazole).
ATPase Activity Assays. ATP hydrolysis activity was measured using a coupled enzyme assay^72 as modified in reference^26.

[2] = target: T2, cysteineless mouse P-glycoprotein (Mus musculus, UniProt P21447, C1070A/C1121A/C1223A/C133A/C427A/C638A/C669A/C713A/C952A); experiment: SL-ATP (spin-labeled ATP analog) binding titration by ESR; conditions: for Maximum ATP binding: in the presence of the compound, ± standard deviation
T2 construct: made in house; host or cells: Pichia pastoris
Method: Effects of 29 variants on binding of an ATP-analog to purified P-glycoprotein. ATP binding in the presence of the 29 variants was assessed in titration assays using a spin-labeled analog of ATP, 2′,3′-SL-ATP (2′,3′-(2,2,5,5,-tetramethyl-3-pyrroline-1-oxyl-3-carboxylic acid ester) ATP; (2′,3′ indicates a rapid equilibrium of the ester bond between the C2′ and C3′ of the ribose moiety))^48-50, and electron spin resonance spectroscopy as described in^26. Due to the lower stability of the human P-glycoprotein in the extended times needed for these experiments, the cysteineless mouse protein was used here. The goal was to assess whether binding of the 29 variants to P-gp affected nucleotide binding to the protein.
ESR Measurements. ESR measurements were as described in^26. The amount of protein-bound spin-labeled (SL) adenine nucleotide was determined as the difference between the known total concentration of SL-ATP (2′,3′-(2,2,5,5,-tetramethyl-3-pyrroline-1-oxyl-3-carboxylic acid ester) —ATP^48) added and the free spin-labeled nucleotide (SL-ANP) observed in the experiment. Hyperbolic curve fitting of the results was performed using GraphPad Prism 7 to determine maximum binding and apparent affinity for the spin-labeled nucleotide. The equation used for the fitting the curves was […], where P1 corresponds to the maximum binding of SL-ANP (moles of SL-ANP bound per mole P-gp), and P2 equals the apparent dissociation constant for SL-ANP. To quantify the amount of free SL-ANP, standard curves were established where the signal amplitude of the high field signal of the ESR spectra of free SL-ANP in the absence of protein was correlated to the concentration of SL-ANP added. All ESR measurements were performed using a Bruker EMX 6/1 ESR spectrophotometer operating in X-band mode and equipped with a high sensitivity cavity. Spectra were acquired at a microwave frequency of 9.33 GHz, microwave power of 12.63 mW, 100 kHz modulation frequency and a resolution of 1024 points. The centerfield of the scan was at 3325 G and an area of 100 G was scanned. The peak to peak modulation amplitude was 1G and the time constant was set to 10.240 ms. The conversion time was 163.84 ms, resulting in a total time sweep of 167.772 s. The signal gain was adjusted for the SL-ATP concentrations in the different experiments.

T2 sequence (P21447 whole entry C133A/C427A/C638A/C669A/C713A/C952A/C1070A/C1121A/C1223A): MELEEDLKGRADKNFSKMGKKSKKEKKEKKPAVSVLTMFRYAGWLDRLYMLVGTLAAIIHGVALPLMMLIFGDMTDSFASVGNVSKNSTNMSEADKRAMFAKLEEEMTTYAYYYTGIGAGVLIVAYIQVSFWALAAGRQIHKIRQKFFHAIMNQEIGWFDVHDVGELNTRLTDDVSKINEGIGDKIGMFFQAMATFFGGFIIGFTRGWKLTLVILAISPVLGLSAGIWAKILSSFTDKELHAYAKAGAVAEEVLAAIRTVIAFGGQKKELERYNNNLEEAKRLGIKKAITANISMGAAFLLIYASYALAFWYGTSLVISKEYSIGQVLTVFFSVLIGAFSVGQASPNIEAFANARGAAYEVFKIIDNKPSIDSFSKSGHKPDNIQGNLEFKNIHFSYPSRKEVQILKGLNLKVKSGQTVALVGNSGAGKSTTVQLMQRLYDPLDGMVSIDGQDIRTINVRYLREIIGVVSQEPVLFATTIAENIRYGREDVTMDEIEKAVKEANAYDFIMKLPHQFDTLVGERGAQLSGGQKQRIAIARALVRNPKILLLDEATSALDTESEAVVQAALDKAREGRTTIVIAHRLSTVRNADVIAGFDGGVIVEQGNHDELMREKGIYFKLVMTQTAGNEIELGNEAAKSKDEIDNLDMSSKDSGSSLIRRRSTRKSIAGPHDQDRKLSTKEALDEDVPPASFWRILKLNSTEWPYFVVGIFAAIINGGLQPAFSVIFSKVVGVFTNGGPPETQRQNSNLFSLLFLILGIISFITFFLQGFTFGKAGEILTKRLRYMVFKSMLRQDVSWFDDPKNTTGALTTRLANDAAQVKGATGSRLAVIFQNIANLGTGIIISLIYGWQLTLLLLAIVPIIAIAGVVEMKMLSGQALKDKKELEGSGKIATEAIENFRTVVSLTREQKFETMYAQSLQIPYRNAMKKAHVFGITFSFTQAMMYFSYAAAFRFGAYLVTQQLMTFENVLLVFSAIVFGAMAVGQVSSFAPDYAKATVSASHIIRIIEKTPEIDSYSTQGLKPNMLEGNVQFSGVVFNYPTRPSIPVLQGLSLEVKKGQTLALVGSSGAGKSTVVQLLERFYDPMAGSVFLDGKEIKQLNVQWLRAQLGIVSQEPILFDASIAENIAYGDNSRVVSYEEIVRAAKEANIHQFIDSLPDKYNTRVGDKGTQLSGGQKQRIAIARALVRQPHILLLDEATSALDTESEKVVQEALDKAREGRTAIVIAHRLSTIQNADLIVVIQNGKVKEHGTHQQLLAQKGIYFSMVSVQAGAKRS
T1 sequence (P08183 whole entry): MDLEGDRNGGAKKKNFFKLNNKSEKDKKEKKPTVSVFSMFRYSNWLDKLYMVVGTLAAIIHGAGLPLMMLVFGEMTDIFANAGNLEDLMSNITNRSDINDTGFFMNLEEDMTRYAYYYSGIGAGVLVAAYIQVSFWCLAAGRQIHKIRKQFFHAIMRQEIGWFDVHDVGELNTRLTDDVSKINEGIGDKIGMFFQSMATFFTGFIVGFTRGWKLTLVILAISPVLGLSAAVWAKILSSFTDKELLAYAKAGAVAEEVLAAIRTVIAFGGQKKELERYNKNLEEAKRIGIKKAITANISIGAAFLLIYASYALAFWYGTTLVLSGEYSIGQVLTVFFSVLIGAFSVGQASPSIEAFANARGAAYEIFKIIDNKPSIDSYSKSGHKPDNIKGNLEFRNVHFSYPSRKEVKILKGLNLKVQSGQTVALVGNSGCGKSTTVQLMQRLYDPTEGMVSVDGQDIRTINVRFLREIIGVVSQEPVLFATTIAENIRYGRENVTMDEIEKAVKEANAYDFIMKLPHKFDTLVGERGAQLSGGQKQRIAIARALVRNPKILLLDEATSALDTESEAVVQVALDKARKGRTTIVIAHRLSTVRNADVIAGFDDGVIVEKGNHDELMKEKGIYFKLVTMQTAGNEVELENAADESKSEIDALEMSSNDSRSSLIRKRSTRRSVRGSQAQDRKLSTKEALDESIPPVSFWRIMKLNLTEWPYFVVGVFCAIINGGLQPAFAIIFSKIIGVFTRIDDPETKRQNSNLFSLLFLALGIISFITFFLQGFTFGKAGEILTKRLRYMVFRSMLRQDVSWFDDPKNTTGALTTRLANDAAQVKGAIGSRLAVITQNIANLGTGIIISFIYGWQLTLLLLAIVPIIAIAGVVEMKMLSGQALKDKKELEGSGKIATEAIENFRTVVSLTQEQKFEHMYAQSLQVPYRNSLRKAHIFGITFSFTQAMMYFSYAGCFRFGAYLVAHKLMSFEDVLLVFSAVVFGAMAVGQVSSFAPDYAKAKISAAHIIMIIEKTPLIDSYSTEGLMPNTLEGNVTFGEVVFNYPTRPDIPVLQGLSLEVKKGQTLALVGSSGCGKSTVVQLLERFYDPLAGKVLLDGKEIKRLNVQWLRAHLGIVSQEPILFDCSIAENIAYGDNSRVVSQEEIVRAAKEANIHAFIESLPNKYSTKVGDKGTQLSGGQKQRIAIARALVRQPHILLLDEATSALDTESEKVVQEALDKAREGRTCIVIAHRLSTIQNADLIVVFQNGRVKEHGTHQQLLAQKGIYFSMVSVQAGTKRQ

| Effect on stimulated ATPase [1] | Stimulated ATPase [1] | Effect on basal ATPase [1] | Basal ATPase [1] | Effect on SL-ANP binding [2] | Maximum ATP binding [2] [mol SL-ANP bound/mol P-gp] | Maximum ATP binding ([2]; listed as 238) | Maximum ATP binding ([2]; listed as SMU29-238) [mol SL-ANP bound/mol P-gp] | Maximum ATP binding ([2]; listed as 278) | Maximum ATP binding ([2]; listed as SMU29-278) [mol SL-ANP bound/mol P-gp] | Molecule |
| --- | --- | --- | --- | --- | --- | --- | --- | --- | --- | --- |
| inhibitor | 64 ± 6 % of DMSO | inhibitor | 69 ± 8 % of DMSO | no | 1.7 ± 0.1 |  |  |  |  | 2-{[2-(9H-flouoren-2-yl)-2-oxoethyl]}-N-[1-phenyl-3-(2,4,5-trimethylphenyl0-1H-pyrazol-5-yl]acetamide [29-216] |
| inhibitor | 62 ± 5 % of DMSO | none | 83 ± 7 % of DMSO | no | 1.8 ± 0.1 |  |  |  |  | Cc1cc(C)c(-c2cc(NC(=O)CSCC(=O)N3c4ccccc4CCc4ccccc43)n(-c3ccccc3)n2)cc1C [29-227, 2-[(2-{2-azatricyclo[9.4.0.0]pentadeca-1(11),3(8},4,6,12,14-hexaen-2-yl)-2-oxoethyl)sulfanyl]-N-[1-phenyl-3-(2,4,5-trimethylphenyl)-1H-pyrazol-5-yl]acetamide] |
| inhibitor | 40 ± 3 % of DMSO | inhibitor | 70 ± 4 % of DMSO | marginally | 1.8 ± 0.1 |  |  |  |  | Cc1cc(C)c(-c2cc(NC(=O)CSCC(=O)Nc3ccc4ccccc4c3)n(-c3ccccc3)n2)cc1C [29-231, 2-({[(naphthalen-2-yl)carbamoyl]methyl}sulfanyl)-N-[1-phenyl-3-(2,4,5-trimethylphenyl)-1H-pyrazol-5-yl]acetamide] |
| inhibitor | 61 ± 7 % of DMSO | none | 89 ± 7 % of DMSO | yes |  | about 1 mol SL-ANP bound/mol P-gp | 1.2 ± 0.1 |  |  | COc1cc(NC(=O)CSCC(=O)Nc2cc(-c3cc(C)c(C)cc3C)nn2-c2ccccc2)cc(OC)c1OC [29-238, N-[1-phenyl-3-(2,4,5-trimethylphenyl)-1H-pyrazol-5-yl]-2-({[(3,4,5-trimethoxyphenyl)carbamoyl]methyl}sulfanyl)acetamide] |
| inhibitor | 59 ± 6 % of DMSO | none | 84 ± 9 % of DMSO | no | 1.9 ± 0.1 |  |  |  |  | Cc1cc(C)c(-c2cc(NC(=O)CSCC(=O)Nc3ccc4ncsc4c3)n(-c3ccccc3)n2)cc1C [29-255, 2-({[(1,3-benzothiazol-6-yl)carbamoyl]methyl}sulfanyl)-N-[1-phenyl-3-(2,4,5 trimethylphenyl)-1H-pyrazol-5-yl]acetamide] |
| inhibitor | 63 ± 6 % of DMSO | inhibitor | 74 ± 6 % of DMSO | yes |  |  |  | about 1 mol SL-ANP bound/mol P-gp | 1.3 ± 0.1 | Cc1cc(C)c(-c2cc(NC(=O)CSCC(=O)NC34CC5CC(CC(C5)C3)C4)n(-c3ccccc3)n2)cc1C [29-278, 2-({[(adamantan-1-yl)carbamoyl]methyl}sulfanyl)-N-[1-phenyl-3-(2,4,5-trimethylphenyl)-1H-pyrazol-5-yl]acetamide] |
| inhibitor | 59 ± 4 % of DMSO | none | 95 ± 3 % of DMSO | no | 1.9 ± 0.1 |  |  |  |  | Cc1cc(C)c(-c2cc(NC(=O)CSCC(=O)NCc3ccc(F)cc3)n(-c3ccccc3)n2)cc1C [29-286] |
| inhibitor | 27 ± 1 % of DMSO | inhibitor | 72 ± 9 % of DMSO | no | 1.7 ± 0.1 |  |  |  |  | Cc1cc(C)c(-c2cc(NC(=O)CSc3cccc(NC(=O)c4cncc(Br)c4)c3)n(-c3ccccc3)n2)cc1C [29-551, 5-bromo-N-(3-((2-oxo-2-((1-phenyl-3-(2,4,5-trimethylphenyl)-1H-pyrazol-5-yl)amino)ethyl)thio)phenyl)nicotinamide] |
| inhibitor | 62 ± 3 % of DMSO | none | 88 ± 9 % of DMSO |  |  |  |  |  |  | Cc1cc(C)c(-c2cc(NC(=O)CSc3nnc(C4CC4)[nH]3)n(-c3ccccc3)n2)cc1C [compound 29, reference compound] |

| Molecule | Effect on stimulated ATPase [1] | Stimulated ATPase [1] | Effect on basal ATPase [1] | Basal ATPase [1] | Effect on SL-ANP binding [2] | Maximum ATP binding [2] [mol SL-ANP bound/mol P-gp] | Maximum ATP binding ([2]; listed as 238) | Maximum ATP binding ([2]; listed as SMU29-238) [mol SL-ANP bound/mol P-gp] | Maximum ATP binding ([2]; listed as 278) | Maximum ATP binding ([2]; listed as SMU29-278) [mol SL-ANP bound/mol P-gp] |
| --- | --- | --- | --- | --- | --- | --- | --- | --- | --- | --- |
| Cc1cc(C)c(-c2cc(NC(=O)CSCC(=O)NC(c3ccccc3)c3ccccc3)n(-c3ccccc3)n2)cc1C [29-280, N-(diphenylmethyl)-2-[({[1-phenyl-3-(2,4,5-trimethylphenyl)-1H-pyrazol-5-yl]carbamoyl)methyl}sulfanyl]acetamide] | inhibitor | 54 ± 7 % of DMSO | inhibitor | 76 ± 8 % of DMSO | marginally | 1.6 ± 0.1 |  |  |  |  |
| Cc1cc(C)c(-c2cc(NC(=O)CSc3nnc4c(n3)[nH]c3ccccc34)n(-c3ccccc3)n2)cc1C [29-541, 2-((5H-[1,2,4]triazino[5,6-b]indol-3-yl)thio)-N-(1-phenyl-3-(2,4,5-trimethylphenyl)-1H-pyrazol-5-yl)acetamide] | inhibitor | 66 ± 6 % of DMSO | none | 87 ± 9 % of DMSO | no | 1.8 ± 0.1 |  |  |  |  |
